From patent publication US8785477B2, “Hexahydropyrrolo[3,4-b]pyrrole derivatives, preparation methods and pharmaceutical uses thereof” (Shanghai Sun-Sail Pharmaceutical Science & Technology Co., …, priority 2010, dated 2014)
Where a name gives a salt, the structure may show the parent alone. Read-outs that look alike come from different tables or passages of the source.

Key:
[1] = target: DPP8 (Homo sapiens (Human), UniProt Q6V1X1); assay: Selectivity panel, recombinant dipeptidase inhibition (fluorescence substrate): DPP8; type: biochemical; settings: for Selective ratio DPP8/DPPIV: ratio of IC50 values; for IC50: recombinant DPP8
Source text: (§1) The recombinant proteins of DPPIV, DPP8, DPP9 and FAP were expressed by using insect expression system (purchased from Shanghai Jinmai Biotechnology Co. Ltd). The activities of these […] were detected by using fluorescence substrate.

[2] = target: T1, DPPIV (Homo sapiens (Human), UniProt P27487); assay: Selectivity panel, recombinant dipeptidase inhibition (fluorescence substrate): DPPIV; type: biochemical
Source text: as §1

[3] = target: T1, DPPIV; assay: DPP-IV-inhibiting activity, fluorescence assay with Ala-Pro-AMC substrate; type: biochemical; settings: pH7.5, 37° C.
Procedure: Determination of DPP-IV-inhibiting activity could be performed by common methods. DPP-IV was pure enzyme expressed by using baculovirus expressing system and purified. […] The reaction system was carried out in buffer of pH7.5 and the substrate was alanine-proline-7-amino-4-methylcoumarin (Ala-Pro-AMC).
DPP-IV could degradate substrate Ala-Pro-AMC to give product AMC. […] The DPP-IV activity could be determined by dynamic detecting the increasing speed of fluorescence value at 460 nm.
Thoroughly mixed test compounds, enzyme and reaction buffer, preincubated the mixture for 15 minutes at 37° C. and then primed reaction by adding substrate, successfully detecting fluorescence value at 460 nm for 5 minutes. […] All final reaction volumes were 100 μL. Each concentration of each sample consisted of parallel wells in triplate.
Firstly, calculated the increment of fluorescence intensity per unit time during the initial speed of enzyme (unit: RFU/sec) which can be used to express initial speed, then calculated activity percentage of sample in each concentration group as follows: Activity %=vsample/vDMSO*100%
Wherein, vsample represents initial speed of sample in each concentration group, vDMSO represents initial speed of DMSO group.
Logarithm concentration was plotted versus activity percentage, and then calculated fitting curve by nonlinear regression from which IC50 value was calculated.

[4] = target: FAP (Homo sapiens (Human), UniProt Q12884); assay: Selectivity panel, recombinant dipeptidase inhibition (fluorescence substrate): FAP; type: biochemical
Source text: as §1

[5] = target: DPP9 (Homo sapiens (Human), UniProt Q86TI2); assay: Selectivity panel, recombinant dipeptidase inhibition (fluorescence substrate): DPP9; type: biochemical; settings: for Selective ratio DPP9/DPPIV: ratio of IC50 values; for IC50: recombinant DPP9
Source text: as §1

[6] = system: normal ICR mice; assay: In vivo glucose-decreasing activity, oral glucose load in normal mice; settings: 3.0 mg/kg gavage; for AUC (area under curve of blood glucose): glucose load 60 min post-administration, x ± s
Procedure: 70 male clean-grade ICR mice with 20.0-24.0 g body weight were provided by Experimental Animal Center of Zhejiang University. Production license number of experimental animal: SCXK[zhe]2007-0039; Use license number of experimental animal: SYXK(zhe)2007-0098.
Feeding condition for animals: met the requirement for experimental facility of SPF grade animals, temperature at 20-25° C., humidity of 0-70%, illuminating condition was alternately 12 hours of brightness and 12 hours of darkness, ventilation rate was 10-20 times per hour, free access to water (city drinking water), illumination was 12 h/12 h of alternating light and dark at day and night respectively.
50 male clean-grade mice passing quarantine with 20.0-24.0 g body weight were randomly divided into 5 groups which included solvent control group, model group, compound dose group (3.0 mg/kg) respectively, 10 per group.
Mice in each group were fasted for 12 hours and then 0.08 mL blood was drawn by cutting tail. Serum was collected and used to determinating fasting blood glucose value. After drawing blood, mice in each dose group were administrated by gavage with different drug solution of corresponding dose and mice in solvent control and model group were administrated with distilled water of equal volume, wherein administration volume was 0.2 mL/10 g. 0.08 mL blood was drawn from each group at 60 minutes post-administration to determine the blood glucose value at 60 minutes post-administration. After drawing blood, […] glucose was administrated by gavage to each group except for solvent control group, wherein administration volume was 0.2 mL/10 g, and then blood was drawn at 20 min, 40 min, 60 min, 120 min after administration of glucose respectively, blood was centrifugated at 6000 rpm for 10 min to separate serum for determining the blood glucose value at each time point, area under curve of blood glucose was calculated on the basis of blood glucose concentration.

[7] = In vivo pharmacokinetic study in rats (gavage); design: species or system SD rats; settings: 20 mg/kg gavage
Procedure: 12 healthy, male SD rats with 200-220 g body weight were assigned randomly to 3 groups (4 in each group), particular assignment was shown in the table below:
Rats were fasted for 12 h before test with free access to water and uniformly fed at 2 h after administration.
Time points of blood collecting and samples treatment: 0.3 mL blood was drawn through mice post-glomus venous plexus at 0.25, 0.5, 1.0, 2.0, 3.0, 4.0, 5.0, 7.0, 9.0 and 24 hours post-administration, placed in heparinized test tube, centrifuged at 3000 rpm/min for 10 minutes, separated plasma, frozen in refrigerator at −20° C. Unchanged drug concentration in plasma was determined by liquid chromatography-tandem mass spectrometry method.

[8] = male, SD, rat, plasma, po, read-out: Cmax
[9] = male, SD, rat, plasma, po, read-out: Tmax

Sequence of DPP9 (Q86TI2 whole entry): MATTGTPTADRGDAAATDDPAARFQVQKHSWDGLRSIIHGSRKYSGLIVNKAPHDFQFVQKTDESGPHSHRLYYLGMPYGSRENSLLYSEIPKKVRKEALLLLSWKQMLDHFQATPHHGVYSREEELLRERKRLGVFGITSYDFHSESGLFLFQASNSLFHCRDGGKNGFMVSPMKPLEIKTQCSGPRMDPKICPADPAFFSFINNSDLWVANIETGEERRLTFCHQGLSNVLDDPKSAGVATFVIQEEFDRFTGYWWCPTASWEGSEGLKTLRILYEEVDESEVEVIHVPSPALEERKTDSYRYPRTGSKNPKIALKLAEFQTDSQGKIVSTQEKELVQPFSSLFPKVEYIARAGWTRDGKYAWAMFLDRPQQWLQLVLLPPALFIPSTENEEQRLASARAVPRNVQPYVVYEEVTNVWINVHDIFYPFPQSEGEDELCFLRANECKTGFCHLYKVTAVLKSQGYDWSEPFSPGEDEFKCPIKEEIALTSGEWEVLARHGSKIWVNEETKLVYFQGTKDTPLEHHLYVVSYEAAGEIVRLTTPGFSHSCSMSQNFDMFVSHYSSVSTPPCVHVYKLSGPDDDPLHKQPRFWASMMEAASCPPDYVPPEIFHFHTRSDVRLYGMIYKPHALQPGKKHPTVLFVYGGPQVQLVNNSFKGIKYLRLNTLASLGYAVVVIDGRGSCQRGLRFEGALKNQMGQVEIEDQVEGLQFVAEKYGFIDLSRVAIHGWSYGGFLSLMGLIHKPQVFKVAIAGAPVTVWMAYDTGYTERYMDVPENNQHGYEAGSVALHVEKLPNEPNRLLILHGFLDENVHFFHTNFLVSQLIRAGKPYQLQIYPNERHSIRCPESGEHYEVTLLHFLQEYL
Sequence of FAP (Q12884 whole entry): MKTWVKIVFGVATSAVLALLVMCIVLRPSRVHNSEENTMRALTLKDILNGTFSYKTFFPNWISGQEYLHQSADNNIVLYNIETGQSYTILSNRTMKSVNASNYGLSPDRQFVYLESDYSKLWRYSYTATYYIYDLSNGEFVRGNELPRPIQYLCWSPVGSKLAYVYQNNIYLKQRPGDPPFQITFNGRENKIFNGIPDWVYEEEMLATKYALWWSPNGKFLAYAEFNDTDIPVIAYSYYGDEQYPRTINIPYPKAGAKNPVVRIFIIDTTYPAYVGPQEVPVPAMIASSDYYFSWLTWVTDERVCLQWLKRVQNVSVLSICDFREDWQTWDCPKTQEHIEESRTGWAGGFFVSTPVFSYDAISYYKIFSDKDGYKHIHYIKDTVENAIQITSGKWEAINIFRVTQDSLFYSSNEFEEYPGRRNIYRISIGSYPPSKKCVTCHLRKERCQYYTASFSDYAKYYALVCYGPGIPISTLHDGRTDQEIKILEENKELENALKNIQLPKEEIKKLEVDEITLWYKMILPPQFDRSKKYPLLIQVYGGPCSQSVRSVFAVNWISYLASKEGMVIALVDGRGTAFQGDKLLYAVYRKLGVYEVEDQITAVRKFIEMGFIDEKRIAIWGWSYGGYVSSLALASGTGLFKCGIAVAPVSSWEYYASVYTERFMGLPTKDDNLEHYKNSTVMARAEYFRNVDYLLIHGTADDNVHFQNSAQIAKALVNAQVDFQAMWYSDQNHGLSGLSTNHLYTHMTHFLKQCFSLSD
T1 sequence (P27487 whole entry): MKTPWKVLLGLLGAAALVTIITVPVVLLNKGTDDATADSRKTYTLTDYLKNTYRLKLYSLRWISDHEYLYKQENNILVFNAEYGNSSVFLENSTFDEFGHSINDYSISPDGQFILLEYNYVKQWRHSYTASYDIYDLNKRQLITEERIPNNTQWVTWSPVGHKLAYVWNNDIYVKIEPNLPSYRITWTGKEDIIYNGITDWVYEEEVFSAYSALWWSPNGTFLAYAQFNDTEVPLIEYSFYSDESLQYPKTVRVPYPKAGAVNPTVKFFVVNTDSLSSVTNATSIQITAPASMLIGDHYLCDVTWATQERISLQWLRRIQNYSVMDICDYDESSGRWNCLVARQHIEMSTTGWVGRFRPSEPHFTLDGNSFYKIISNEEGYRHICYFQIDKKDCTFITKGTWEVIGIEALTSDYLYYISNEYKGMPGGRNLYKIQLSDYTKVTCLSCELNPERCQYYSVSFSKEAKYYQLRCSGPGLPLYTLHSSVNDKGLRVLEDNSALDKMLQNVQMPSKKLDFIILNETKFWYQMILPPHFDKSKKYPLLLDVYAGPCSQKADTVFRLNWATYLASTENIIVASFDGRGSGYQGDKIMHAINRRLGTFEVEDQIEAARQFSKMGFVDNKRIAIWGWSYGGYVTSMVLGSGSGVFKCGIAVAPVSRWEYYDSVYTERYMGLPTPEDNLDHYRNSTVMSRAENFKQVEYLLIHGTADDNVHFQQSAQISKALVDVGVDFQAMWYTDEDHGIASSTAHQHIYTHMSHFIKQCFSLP
Sequence of DPP8 (Q6V1X1 whole entry): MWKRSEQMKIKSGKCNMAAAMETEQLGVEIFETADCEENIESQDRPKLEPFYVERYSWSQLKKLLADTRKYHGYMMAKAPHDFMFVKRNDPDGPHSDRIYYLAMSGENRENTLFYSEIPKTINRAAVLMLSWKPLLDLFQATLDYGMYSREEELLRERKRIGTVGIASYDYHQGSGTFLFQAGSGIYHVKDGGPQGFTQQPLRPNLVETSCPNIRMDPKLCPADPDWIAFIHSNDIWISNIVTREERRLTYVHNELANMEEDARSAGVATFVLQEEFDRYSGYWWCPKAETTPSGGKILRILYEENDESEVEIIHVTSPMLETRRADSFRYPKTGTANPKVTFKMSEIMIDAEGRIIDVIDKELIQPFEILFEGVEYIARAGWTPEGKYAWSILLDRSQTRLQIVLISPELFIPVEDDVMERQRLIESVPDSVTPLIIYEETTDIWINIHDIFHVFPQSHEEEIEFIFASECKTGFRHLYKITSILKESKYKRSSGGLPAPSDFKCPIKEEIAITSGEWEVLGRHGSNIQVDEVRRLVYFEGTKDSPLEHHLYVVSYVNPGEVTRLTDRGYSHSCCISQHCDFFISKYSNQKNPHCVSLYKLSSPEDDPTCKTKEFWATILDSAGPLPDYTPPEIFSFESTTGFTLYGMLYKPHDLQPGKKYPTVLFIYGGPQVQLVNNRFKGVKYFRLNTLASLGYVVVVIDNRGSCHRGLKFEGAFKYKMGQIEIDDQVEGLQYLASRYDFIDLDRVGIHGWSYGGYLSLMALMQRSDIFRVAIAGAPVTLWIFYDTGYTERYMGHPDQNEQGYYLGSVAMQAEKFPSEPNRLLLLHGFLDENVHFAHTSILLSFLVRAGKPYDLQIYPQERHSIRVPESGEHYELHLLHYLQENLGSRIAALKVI

IC50 [3] [nM] | SMILES | Selective ratio DPP8/DPPIV [1] | IC50 [1] [µM] | IC50 [2] [nM] | IC50 [4] [µM] | Selective ratio DPP9/DPPIV [5] | IC50 [5] [µM] | inhibition rate (blood glucose AUC) [6] [%] | AUC (area under curve of blood glucose) [6] [mmol·min/L] | AUC0−t [7] [ngh/mL] | other results
11.5 | N#CC1(C(=O)N2C[C@@H]3CCN(C(=O)C[C@H](N)Cc4cc(F)c(F)cc4F)[C@@H]3C2)CC1 [Compound 17, (R)-3-amino-1-((3aS,6aS)-5-(1-cyanocyclopropylcarbonyl)-hexahydropyrrolo[3,4-b]pyrrol-1(2H)-yl)-4-(2,4,5-trifluorophenyl)butan-1-one fumarate] |  |  |  |  |  |  |  |  |  | 
17.7 ± 3.77 | CN(C)C(=O)N1C[C@@H]2CCN(C(=O)C[C@H](N)Cc3cc(F)c(F)cc3F)[C@@H]2C1 [Compound 3, (R)-3-amino-1-((3aS,6aS)-5-(N,N-dimethylaminoformyl)-hexahydropyrrolo[3,4-b]pyrrol-1(2H)-yl)-4-(2,4,5-trifluorophenyl)butane-1-one fumarate] |  |  |  |  |  |  |  |  |  | 
25.9 ± 3.91 | N[C@@H](CC(=O)N1CC[C@H]2CN(C(=O)C3CC3)C[C@H]21)Cc1cc(F)c(F)cc1F [Compound 12, (R)-3-amino-1-((3aS,6aS)-5-(cyclopropylcarbonyl)-hexahydropyrrolo[3,4-b]pyrrol-1(2H)-yl)-4-(2,4,5-trifluorophenyl)butan-1-one fumarate] |  |  |  |  |  |  |  |  |  | 
 | N[C@@H](CC(=O)N1CCn2c(nnc2C(F)(F)F)C1)Cc1cc(F)c(F)cc1F [Sitagliptin, reference compound] |  |  |  |  |  |  | 31.1 | 240 ± 24 | 1655 | Cmax [7]: 477 ng/mL; T1/2 [7]: 2.11 h; Tmax [7]: 26.4 min
22.8 ± 1.99 | CN1C[C@@H]2CCN(C(=O)C[C@H](N)Cc3cc(F)c(F)cc3F)[C@@H]2C1 [Compound 1, (R)-3-amino-1-((3aS,6aS)-hexahydro-5-methylpyrrolo[3,4-b]pyrrol-1(2H)-yl)-4-(2,4,5-trifluorophenyl)butan-1-one fumarate] |  |  |  |  |  |  |  |  |  | 

SMILES | IC50 [3] [nM] | Selective ratio DPP8/DPPIV [1] | IC50 [1] [µM] | IC50 [2] [nM] | IC50 [4] [µM] | Selective ratio DPP9/DPPIV [5] | IC50 [5] [µM] | inhibition rate (blood glucose AUC) [6] [%] | AUC (area under curve of blood glucose) [6] [mmol·min/L] | AUC0−t [7] [ngh/mL] | other results
CS(=O)(=O)c1cccc(C(=O)N2C[C@@H]3CCN(C(=O)C[C@H](N)Cc4cc(F)c(F)cc4F)[C@@H]3C2)c1.O=C(O)/C=C/C(=O)O [Compound 26, (R)-3-amino-1-((3aS,6aS)-5-(3-mesylbenzoyl)-hexahydropyrrolo[3,4-b]pyrrol-1(2H)-yl)-4-(2,4,5-trifluorophenyl)butan-1-one fumarate] | 2.61 ± 0.46 | 6057 | 15.8 ± 7.65 | 2.6 | 11.3 ± 4.02 | 1311 | 3.45 ± 3.47 |  |  |  | 
CC(C)(C)C(=O)N1C[C@@H]2CCN(C(=O)C[C@H](N)Cc3cc(F)c(F)cc3F)[C@@H]2C1 [Compound 20, (R)-3-amino-1-((3aS,6aS)-5-(tertvaleryl)-hexahydropyrrolo[3,4-b]pyrrol-1(2H)-yl)-4-(2,4,5-trifluorophenyl)butan-1-one fumarate] | 23.2 ± 2.24 | 907 | 20.9 ± 5.63 | 23 | 15.9 ± 4.72 | 241 | 5.55 ± 2.52 | 38.3 | 215 ± 44 | 2076 | half-life ([7]; male, SD, rat, plasma, po): 147 min; Cmax [7, 8]: 917 ng/mL; Tmax [7, 9]: 48.6 min
CC(C)(F)C(=O)N1C[C@@H]2CCN(C(=O)C[C@H](N)Cc3cc(F)c(F)cc3F)[C@@H]2C1 [Compound 8, (R)-3-amino-1-((3aS,6aS)-5-(2-fluoro-2-methylpropionyl)-hexahydropyrrolo[3,4-b]pyrrol-1(2H)-yl)-4-(2,4,5-trifluorophenyl)butan-1-onefumarate] | 11.2 ± 3.76 | 1602 | 17.6 ± 3.61 | 11 | 13.5 ± 0.28 | 322 | 3.55 ± 1.02 | 63.0 | 129 ± 41 | 2921 | half-life ([7]; male, SD, rat, plasma, po): 137 min; Cmax [7, 8]: 933 ng/mL; Tmax [7, 9]: 60 min
